In patent US20250000999A1, “POLYMERSOMES FOR CLEARANCE OF AMYLOID BETA AND/OR TAU PROTEINS” (UCL Business Ltd, priority 2021, published 2025):

Test system: LRP-1
Test: Single binding energy of a ligand/LRP-1 receptor pair
Text: wherein: • λ is the density of the ligand type on the external surface of the microparticle or nanoparticle (number per nm^2 • A is the microparticle or nanoparticle surface area (in nm^2); • ξ is the number of the LRP-1 receptors accessible to the nanoparticles, and thus ξ=ΓA where, Γ is the LRP-1 surface density (number per nm^2) and A is as defined above; • β=(kBT)^−1 wherein kB is the Boltzmann constant (in JK^−1) and T is the absolute temperature in Kelvin; • εB is the single energy of binding of a ligand type/LRP-1 receptor pair (in J); and • uS is the steric potential between the nanoparticle or microparticle and the cell surface (in J).
The single ligand binding potential εB between a given ligand and the LRP-1 receptor can be measured experimentally by binding assays including Surface plasmon resonance spectroscopy, Isothermal titration calorimetry, radiolabeling or fluorescent labelling. It can also be estimated computationally using molecular docking and or molecular dynamics methods.

Sequence of LRP-1 (Q07954 20-4544, species assumed): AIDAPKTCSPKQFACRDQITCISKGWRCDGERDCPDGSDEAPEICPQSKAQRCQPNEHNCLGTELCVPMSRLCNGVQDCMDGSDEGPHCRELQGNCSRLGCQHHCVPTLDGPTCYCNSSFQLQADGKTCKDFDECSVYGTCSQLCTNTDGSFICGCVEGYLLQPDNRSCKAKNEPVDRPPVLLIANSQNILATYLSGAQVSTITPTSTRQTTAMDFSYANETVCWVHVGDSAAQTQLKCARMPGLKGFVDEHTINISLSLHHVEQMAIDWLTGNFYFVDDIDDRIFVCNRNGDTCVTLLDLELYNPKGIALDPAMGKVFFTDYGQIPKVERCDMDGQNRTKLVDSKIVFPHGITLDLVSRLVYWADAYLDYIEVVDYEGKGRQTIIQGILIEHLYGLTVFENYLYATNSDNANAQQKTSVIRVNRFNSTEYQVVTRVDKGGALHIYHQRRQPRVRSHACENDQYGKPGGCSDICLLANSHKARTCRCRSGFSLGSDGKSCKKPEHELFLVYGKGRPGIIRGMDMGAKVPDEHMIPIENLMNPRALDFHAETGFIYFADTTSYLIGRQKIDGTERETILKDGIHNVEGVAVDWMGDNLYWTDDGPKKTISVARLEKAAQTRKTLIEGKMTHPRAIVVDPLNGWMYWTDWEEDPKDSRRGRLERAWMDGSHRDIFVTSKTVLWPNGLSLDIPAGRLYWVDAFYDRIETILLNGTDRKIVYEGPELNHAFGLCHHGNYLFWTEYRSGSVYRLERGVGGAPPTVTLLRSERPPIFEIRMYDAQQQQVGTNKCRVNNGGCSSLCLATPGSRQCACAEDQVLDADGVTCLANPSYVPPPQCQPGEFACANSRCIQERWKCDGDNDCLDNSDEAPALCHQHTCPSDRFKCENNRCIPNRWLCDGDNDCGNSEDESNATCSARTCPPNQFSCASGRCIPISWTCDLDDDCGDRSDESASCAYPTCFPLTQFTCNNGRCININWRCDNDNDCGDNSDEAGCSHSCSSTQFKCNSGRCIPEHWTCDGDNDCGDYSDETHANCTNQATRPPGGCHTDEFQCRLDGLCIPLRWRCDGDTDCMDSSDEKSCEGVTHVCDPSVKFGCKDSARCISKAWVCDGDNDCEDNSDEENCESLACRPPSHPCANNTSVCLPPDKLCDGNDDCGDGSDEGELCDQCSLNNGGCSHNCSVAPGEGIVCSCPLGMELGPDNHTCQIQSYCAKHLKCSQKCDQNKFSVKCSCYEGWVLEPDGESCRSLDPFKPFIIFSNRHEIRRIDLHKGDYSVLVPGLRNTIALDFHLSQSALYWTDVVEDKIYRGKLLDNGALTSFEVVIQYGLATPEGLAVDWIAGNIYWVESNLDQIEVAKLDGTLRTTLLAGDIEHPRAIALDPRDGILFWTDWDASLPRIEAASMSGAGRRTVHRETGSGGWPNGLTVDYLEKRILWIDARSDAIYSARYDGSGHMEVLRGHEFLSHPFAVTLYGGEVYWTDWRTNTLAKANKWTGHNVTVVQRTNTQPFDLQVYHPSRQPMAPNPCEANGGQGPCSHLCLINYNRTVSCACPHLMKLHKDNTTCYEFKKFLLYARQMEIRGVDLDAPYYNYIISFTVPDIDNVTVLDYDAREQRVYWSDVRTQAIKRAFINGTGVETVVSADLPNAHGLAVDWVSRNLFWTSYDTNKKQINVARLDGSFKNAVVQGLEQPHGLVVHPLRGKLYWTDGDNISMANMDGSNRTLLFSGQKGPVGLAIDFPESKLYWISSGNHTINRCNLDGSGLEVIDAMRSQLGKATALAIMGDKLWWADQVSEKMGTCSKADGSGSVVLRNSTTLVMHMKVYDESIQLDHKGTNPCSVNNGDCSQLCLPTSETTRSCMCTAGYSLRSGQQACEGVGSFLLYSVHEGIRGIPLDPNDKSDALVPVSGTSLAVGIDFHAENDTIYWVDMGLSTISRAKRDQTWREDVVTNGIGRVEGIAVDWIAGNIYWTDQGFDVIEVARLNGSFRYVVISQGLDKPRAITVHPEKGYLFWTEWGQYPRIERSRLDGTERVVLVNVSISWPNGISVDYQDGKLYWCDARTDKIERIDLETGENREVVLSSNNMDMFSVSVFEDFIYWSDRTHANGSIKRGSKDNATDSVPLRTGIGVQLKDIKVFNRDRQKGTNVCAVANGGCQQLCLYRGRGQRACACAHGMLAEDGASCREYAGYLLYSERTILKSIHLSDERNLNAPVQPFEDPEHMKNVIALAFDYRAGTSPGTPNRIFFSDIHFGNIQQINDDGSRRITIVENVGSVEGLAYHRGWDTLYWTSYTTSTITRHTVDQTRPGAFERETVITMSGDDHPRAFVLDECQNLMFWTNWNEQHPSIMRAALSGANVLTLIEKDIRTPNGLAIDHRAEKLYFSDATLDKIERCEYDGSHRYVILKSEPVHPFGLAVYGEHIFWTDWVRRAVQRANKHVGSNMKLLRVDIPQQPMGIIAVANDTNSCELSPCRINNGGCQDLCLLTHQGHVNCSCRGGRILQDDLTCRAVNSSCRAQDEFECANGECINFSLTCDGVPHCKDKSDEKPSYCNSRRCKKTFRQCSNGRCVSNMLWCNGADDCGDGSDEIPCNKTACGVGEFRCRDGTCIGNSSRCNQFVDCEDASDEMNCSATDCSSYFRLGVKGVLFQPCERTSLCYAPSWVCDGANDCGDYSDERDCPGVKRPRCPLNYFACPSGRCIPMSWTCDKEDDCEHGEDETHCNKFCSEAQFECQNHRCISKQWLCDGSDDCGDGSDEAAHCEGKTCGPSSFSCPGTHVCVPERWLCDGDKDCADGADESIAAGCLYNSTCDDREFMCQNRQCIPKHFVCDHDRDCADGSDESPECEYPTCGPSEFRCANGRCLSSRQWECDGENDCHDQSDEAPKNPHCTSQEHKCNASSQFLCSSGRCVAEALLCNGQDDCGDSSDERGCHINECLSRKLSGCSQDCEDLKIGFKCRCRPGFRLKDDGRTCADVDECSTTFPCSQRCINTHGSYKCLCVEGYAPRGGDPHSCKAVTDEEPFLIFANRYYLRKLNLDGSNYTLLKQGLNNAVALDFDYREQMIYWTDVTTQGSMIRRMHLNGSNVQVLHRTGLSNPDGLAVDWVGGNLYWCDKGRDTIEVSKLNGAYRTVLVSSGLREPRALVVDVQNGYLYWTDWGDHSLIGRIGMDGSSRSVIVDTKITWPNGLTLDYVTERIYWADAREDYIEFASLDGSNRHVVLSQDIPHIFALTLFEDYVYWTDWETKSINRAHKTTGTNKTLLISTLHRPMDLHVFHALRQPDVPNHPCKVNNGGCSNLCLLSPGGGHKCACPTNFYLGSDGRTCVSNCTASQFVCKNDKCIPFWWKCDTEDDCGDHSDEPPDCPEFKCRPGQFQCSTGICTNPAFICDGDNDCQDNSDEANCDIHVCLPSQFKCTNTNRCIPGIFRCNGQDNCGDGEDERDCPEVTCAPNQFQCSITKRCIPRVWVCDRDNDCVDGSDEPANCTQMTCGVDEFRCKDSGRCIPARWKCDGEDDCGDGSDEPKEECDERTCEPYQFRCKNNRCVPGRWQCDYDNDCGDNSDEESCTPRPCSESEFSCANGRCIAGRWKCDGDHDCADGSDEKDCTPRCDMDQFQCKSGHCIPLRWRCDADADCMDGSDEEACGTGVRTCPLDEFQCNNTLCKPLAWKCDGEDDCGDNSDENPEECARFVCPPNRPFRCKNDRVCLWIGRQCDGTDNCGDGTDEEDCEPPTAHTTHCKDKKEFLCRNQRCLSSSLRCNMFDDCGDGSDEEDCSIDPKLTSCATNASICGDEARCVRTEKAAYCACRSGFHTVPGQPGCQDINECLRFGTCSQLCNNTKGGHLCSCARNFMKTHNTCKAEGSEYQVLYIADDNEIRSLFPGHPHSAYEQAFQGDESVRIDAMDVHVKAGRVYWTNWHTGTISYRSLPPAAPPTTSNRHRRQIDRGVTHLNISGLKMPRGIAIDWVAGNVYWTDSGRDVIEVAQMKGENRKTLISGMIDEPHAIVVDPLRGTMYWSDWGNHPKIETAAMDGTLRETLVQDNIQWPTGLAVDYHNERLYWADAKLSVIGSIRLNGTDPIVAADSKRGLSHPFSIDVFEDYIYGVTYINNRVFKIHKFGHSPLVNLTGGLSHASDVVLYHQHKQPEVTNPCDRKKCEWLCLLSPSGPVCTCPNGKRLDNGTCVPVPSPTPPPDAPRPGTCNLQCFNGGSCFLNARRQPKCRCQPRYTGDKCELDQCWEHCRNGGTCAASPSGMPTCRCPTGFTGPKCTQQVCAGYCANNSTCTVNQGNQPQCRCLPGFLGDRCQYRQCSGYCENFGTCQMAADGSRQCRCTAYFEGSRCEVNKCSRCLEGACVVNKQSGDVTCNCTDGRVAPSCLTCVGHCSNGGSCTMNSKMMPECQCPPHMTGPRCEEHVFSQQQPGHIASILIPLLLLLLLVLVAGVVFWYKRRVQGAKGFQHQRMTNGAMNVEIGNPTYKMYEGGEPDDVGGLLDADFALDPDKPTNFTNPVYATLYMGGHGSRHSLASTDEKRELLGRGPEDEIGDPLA

εB, single energy of binding of ligand/LRP-1 receptor pair: −15 kBT
Sequence: TFFYGGSRGKRNNFKTEEY [Angiopep-2]
